US20120009152A1, “NITRIC OXIDE DONORS FOR TREATMENT OF DISEASE AND INJURY” (priority 2002, published 2012)

Columns and labels:
[1] = test system: rats subjected to middle cerebral artery occlusion (MCAo); experiment: Adhesive Removal Test after MCAo, combination study; assay type: in vivo, rat; conditions: treatment 1 day after stroke; NN 0.4 mg/kg IP, hMSCs 1×10^6 cells iv; vs control
Procedure: (§1) Male Wistar rats (n=32) were subjected to middle cerebral artery occlusion (MCAo) and were randomized with 8 rats in four treatment groups, with treatment initiated 1 day after stroke. Groups included: 1) phosphate buffered saline (PBS); 2) subtherapeutic DETA-NONOate (NN) at a dose of 0.4 mg/kg (IP); 3) subtherapeutic hMSCs (1×10^6 cells-iv); and 4) combination subtherapeutic NN and hMSCs. Functional outcome measurements consisted of a Neurologic Severity Scale (18 point scale) (NSS) and the Adhesive Removal Test performed prior to stroke, immediately before treatment and at 7 and 14 days after treatment. […] However, there was an overall hMSC effect on NSS at 14 days.

[2] = test system: cerebral vessels in the ischemic penumbra; experiment: Angiogenesis after MCAo, combination study (BrdU endothelial cells, three-dimensional vessel analysis); assay type: in vivo, rat; conditions: vs control MCAo group
Procedure: as §1
Enlarged and thin walled vessels are termed “mother” vessels and have been found under conditions of cerebral ischemic angiogenesis.
FIGS. 11B and C are computer generated three-dimensional images derived from the original images. Different colors in FIG. 11B represent individual vessels, which were not connected to each other. Green and red colors in FIG. 11C code for diameter of blood vessels less then 7.5 μm (red) and larger then 7.5 μm (green), respectively. […] Enlarged vessels can develop into capillaries after ischemia.

[3] = test system: BrdU immunoreactive cells in dentate gyrus, SVZ and OB; experiment: Cell proliferation (BrdU) in non-ischemic aged rats; assay type: in vivo, rat; conditions: non-ischemic 18-month-old rats; DETA/NONOate 0.4 mg/kg daily 7 days; vs saline
Procedure: […] […] I.V bolus doses of DETA/NONOate (0.1 mg/kg each, every 15 min, and total dose of 0.4 mg/kg) on the first experimental day and DETA/NONOate (0.4 mg/kg) was administered (i.p) daily for an additional 6 consecutive days. Rats that received saline were used as a control group. Bromodeoxyuridine (BrdU) was used as mitotic labeling to measure cell proliferation. Animals received daily i.p injections of BrdU (50 mg/kg, Sigma) on the first experimental day and subsequently for 14 consecutive days. Rats were sacrificed at 14 and 42 days after the treatment. BrdU immunoreactive nuclei were counted on a computer monitor to improve visualization and in one focal plane to avoid over-sampling. Structures were sampled either by selecting predetermined areas on each section (OB) or by analyzing entire structures on each section (SVZ and dentate gyrus) (Zhang et al., 2001). All BrdU immunoreactive-positive nuclei in these areas are presented as the number of the BrdU immunoreactive cells/mm^2. Density for the selected several sections was averaged to obtain a mean density value for each animal (Zhang et al., 2001).
The question of whether this induction of neurogenesis by means of an NO donor in young adult (3-4 month old) rats would also be present in older rats was also tested. […]

[4] = test system: brain-derived endothelial cells; experiment: Endothelial tube formation, total tube length; assay type: cell-based; conditions: vs control medium DMEM 1.4 (0.1); p<0.01
Source text: The enhance induction of angiogenesis is also evident from in vitro studies of tubule formation in brain derived endothelial cells. […] The endothelial cells formed a network of capillary-like structures with numerous intercellular contacts.

nonischemic rats = experiment: Localized CBF by laser-Doppler flowmetry; assay type: in vivo, rat; conditions: sildenafil 2 mg/kg
Procedure: Ischemic rats (n=9) were treated with the same volume of tap water as a control group. Functional tests were performed and body weight was measured before ischemia and at 4, 7, 14, 21, and 28 days after onset of MCA occlusion. All rats were killed 28 days after MCA occlusion. […] These rats were killed 1 hour after the last treatment for measurements of brain levels of cGMP. […] Reverse transcription (RT)-polymerase chain reaction (PCR) was performed to detect PDE5 in brain tissue. Relative erythrocyte flow velocity was measured by laser-Doppler flowmetry (PeriFlux PF4 flowmeter; Perimed AB) in the tissue under the laser-Doppler flowmetry probe. 13 A burr hole 1.5 mm in diameter was drawn on the skull 2 mm posterior to the bregma and 6 mm lateral to midline. 13 The dura was left intact. After the application of mineral oil onto the burr hole, the probe was laced 0.5 mm above the dural surface. […] This measurement reflects relatively localized CBF. 14 Values of flow velocities are presented as a percentage of the contralateral hemispheric values.

[5] = test system: rats subjected to embolic middle cerebral artery occlusion; experiment: Infarct volume 28 days after embolic MCA occlusion; assay type: in vivo, rat; conditions: 28 days after ischemia
Procedure: Male Wistar rats weighing 320 to 380 g were used in the present study. The middle cerebral artery (MCA) was occluded by placement of an embolus at the origin of the MCA.
Ischemic rats (n=9) were treated with the same volume of tap water as a control group. Functional tests were performed and body weight was measured before ischemia and at 4, 7, 14, 21, and 28 days after onset of MCA occlusion. All rats were killed 28 days after MCA occlusion. […] These rats were killed 1 hour after the last treatment for measurements of brain levels of cGMP. […] Experiments were also performed to examine brain PDE5, nonischemic rats and ischemic rats were killed at 2, 4, 24, 48, and 168 hours after the onset of ischemia (n=3 for each time point). Reverse transcription (RT)-polymerase chain reaction (PCR) was performed to detect PDE5 in brain tissue.
Measurement of infarct volume was measured on 7 hematoxylin and eosin-stained coronal sections with the use of a Global Laboratory Image analysis program (Data Translation). Briefly, the area of both hemispheres and the infarct area (mm 2) were calculated by tracing the area on the computer screen. Infarct volume (mm 3) was determined by multiplying the appropriate area by the section interval thickness. The infarct volume is presented as the percent-age of infarct volume of the contralateral hemisphere (indirect volume calculation).

Compound: NCCN(CCN)/[N+]([O-])=N/O [DETANONOate, (Z)-1-[N-(2-aminoethyl)-N-(2-ammonioethyl)aminio]diazen-1-ium-1,2-diolate]
- Adhesive-Removal test score at 14 days [1]: no significant improvement
- BrdU immunoreactive endothelial cells in enlarged vessels, ipsilateral hemisphere [2]: significant (p<0.05) increase
- number of proliferating cells (dentate gyrus, SVZ, OB) [3]: significantly increased the number of proliferating cells
- Total tube length [4]: 4.6±0.6 mm/mm^2

Compound: CCCc1nn(C)c2c(=O)[nH]c(-c3cc(S(=O)(=O)N4CCN(C)CC4)ccc3OCC)nc12 [Sildenafil]
- duration of significantly increased localized CBF after administration (nonischemic rats): 70 min
- localized CBF levels (nonischemic rats; vs control rats): significantly increased localized CBF levels
- Infarct Volume, % ([5]; Sildenafil 2 mg/kg, 2 h, percentage of lesion relative to the contralateral hemisphere): 35.2 ± 3.3%
- Infarct Volume, % ([5]; Sildenafil 2 mg/kg, 24 h): 35.5 ± 0.9%
- Infarct Volume, % ([5]; Sildenafil 5 mg/kg, 2 h): 37.7 ± 4.3%
